In US10308916B2, “Omega-transaminase mutants with activity improvements toward ketones and methods for producing optically pure amines” (Industry-Academic Cooperation Foundation, Yonsei University, priority 2015, dated 2019):
Read-outs that look alike come from different tables or passages of the source.

Legend:
OATA WT [1] = type: biochemical, Ochrobactrum anthropi; settings: pH 7
OATA WT [2] = type: biochemical
OATA WT [3] = type: biochemical; remark: listed apart in the source
OATA WT [4] = type: biochemical, Ochrobactrum anthropi
OATA = OATA (Brucella anthropi, UniProt A6WVC6); type: biochemical
OATA WT [5] = type: biochemical, Ochrobactrum anthropi; remark: listed apart in the source
OATA WT [6] = type: biochemical; remark: listed apart in the source
ARTAmut = settings: cited from earlier work
[7] = test system: (S)-selective omega-transaminase from Ochrobactrum anthropi; settings: cited from earlier work
OATA W58A [8] = type: biochemical; settings: pH 7
OATA W58V = type: biochemical; settings: pH 7
OATA W58I = type: biochemical; settings: pH 7
OATA W58L = type: biochemical; settings: pH 7
OATA W58M = type: biochemical; settings: pH 7
OATA L57A = type: biochemical
OATA W58A [9] = type: biochemical
OATA L57A/W58A = type: biochemical
OATA L57A/W58A/V154A = type: biochemical
OATA WT [10] = type: biochemical, Ochrobactrum anthropi; remark: listed apart in the source
CC(=O)C(=O)O = assay: purified protein, by the assay type

| Molecule | Relative activity to acetophenone, OATA WT (OATA WT [1]) | Relative reactivity, OATA (OATA WT [3]) | also measured |
| --- | --- | --- | --- |
| 1-acetonaphthone [Ketone 1i] | 43% | – | Conversion (%) OATA (OATA WT [2]): 13% |
| CC(C)C(N)c1ccccc1 (racemic) [2-Methyl-1-phenylpropan-1-amine] | – | 0.1% | – |
| CC(N)CO (racemic) [DL-Alaninol] | – | 16% | – |
| CC(C)C(C)N (stereo not shown) [1,2-Dimethylpropylamine] | – | 18% | – |
| CC(C)CC(C)N (stereo not shown) [1,3-Dimethylbutylamine] | – | 3% | – |
| COCC(C)N (stereo not shown) [1-Methoxy-2-propylamine] | – | 29% | – |
| CC(N)CCc1ccccc1 (stereo not shown) [1-Methyl-3-phenylpropylamine] | – | 73% | – |
| CC(C)(C)C(N)c1ccccc1 (stereo not shown) [2,2-Dimethyl-1-phenylpropan-1-amine] | – | 0.1% | – |
| CCCC(C)N (stereo not shown) [2-Aminopentane] | – | 13% | – |
| CCC(=O)C(=O)O [2-oxobutanoic acid] | – | – | Relative activity, OATA WT (OATA WT [4]): 17.2% |
| CCCCC(=O)C(=O)O [2-oxohexanoic acid] | – | – | Relative activity, OATA WT (OATA WT [4]): 1% |
| CCCCCCC(=O)C(=O)O [2-oxooctanoic acid] | – | – | Relative activity, OATA WT (OATA WT [4]): 1% |
| CCCC(=O)C(=O)O [2-oxopentanoic acid] | – | – | Relative activity, OATA WT (OATA WT [4]): 0.6% |
| CC(C)C(=O)C(=O)O [3-methyl-2-oxobutyric acid] | – | – | Relative activity, OATA WT (OATA WT [4]): did not react |
| CC(N)c1ccc(F)cc1 (stereo not drawn) [4-Fluoro-α-methylbenzylamine] | – | 31% | – |
| C[C@H](N)c1cccc2ccccc12 [(S)-1-(1-naphthyl)ethylamine] | – | 0.5% | – |
| C[C@H](N)C1CC1 [(S)-1-Cyclopropylethylamine] | – | 29% | – |
| N[C@H]1CCc2ccccc21 [(S)-1-aminoindan] | – | 9% | – |
| CCCC[C@H](C)N [(S)-2-aminohexane] | – | 31% | – |
| CCCCCC[C@H](C)N [(S)-2-aminooctane] | – | 146% | – |
| COc1ccc([C@H](C)N)cc1 [(S)-4-methoxy-α-methylbenzylamine] | – | 116% | – |
| Cc1ccc([C@H](C)N)cc1 [(S)-α,4-dimethylbenzylamine] | – | 86% | – |
| CC[C@H](N)c1ccccc1 [(S)-α-ethylbenzylamine] | – | 2% | – |
| C[C@H](N)c1ccccc1 [(S)-α-methylbenzylamine] | – | 100% | kcat, OATA (OATA): 24000, 20000 ×10^−3 s^−1; Relative activity, OATA WT (OATA WT [5]): 100% |

| Molecule | Relative activity to acetophenone, OATA WT (OATA WT [1]) | Relative reactivity, OATA (OATA WT [3]) | also measured |
| --- | --- | --- | --- |
| CCC[C@H](N)c1ccccc1 [(S)-α-propylbenzylamine] | – | 0.2% | – |
| NCc1ccccc1 [Benzylamine] | – | 274% | – |
| CC(C)N [Isopropylamine] | – | 20% | kcat, OATA (OATA): 9700, 9300 ×10^−3 s^−1 |
| CC(=O)c1ccccc1 [Ketone 1a, acetophenone] | 100% | – | Relative activity, OATA WT (OATA WT [6]): 100%; kcat, OATA (OATA): 9.7, 540 ×10^−3 s^−1; Conversion (ARTAmut): 19%; activity relative to pyruvate [7]: 0.03% |
| CCC(=O)c1ccccc1 [Ketone 1b, propiophenone] | 1% | – | Relative activity to acetophenone, OATA W58A (OATA W58A [8]): 14%; Relative activity to acetophenone, OATA W58V (OATA W58V): 16%; Relative activity to acetophenone, OATA W58I (OATA W58I): 14%; Relative activity to acetophenone, OATA W58L (OATA W58L): 2%; Relative activity to acetophenone, OATA W58M (OATA W58M): 17%; Relative activity, OATA WT (OATA WT [6]): 17%; Relative activity, OATA L57A (OATA L57A): 49%; Relative activity, OATA W58A (OATA W58A [9]): 259%; Relative activity, OATA L57A/W58A (OATA L57A/W58A): 387%; Relative activity, OATA L57A/W58A/V154A (OATA L57A/W58A/V154A): 821% |
| CCCC(=O)c1ccccc1 [Ketone 1c, butyrophenone] | 0% | – | Relative activity, OATA WT (OATA WT [6]): 2% |
| CC(=O)c1ccc(C)cc1 [Ketone 1d, 4-methylacetophenone] | 51% | – | Conversion (%) OATA (OATA WT [2]): 7% |
| COc1ccc(C(C)=O)cc1 [Ketone 1e, 4-methoxyacetophenone] | 29% | – | – |
| CC(=O)CCc1ccccc1 [Ketone 1f, benzylacetone] | 536% | – | Conversion (%) OATA (OATA WT [2]): 26% |
| O=C1CCc2ccccc21 [Ketone 1g] | – | – | Reaction rate OATA (OATA WT [10]): did not react |
| O=C1CCCc2ccccc21 [Ketone 1h] | – | – | Reaction rate OATA (OATA WT [10]): did not react |
| CCCC(C)=O [Ketone 1j, 2-pentanone] | 83% | – | – |
| CCCCC(C)=O [Ketone 1k, 2-hexanone] | 151% | – | Conversion (%) OATA (OATA WT [2]): 14% |
| CCCCCCC(C)=O [Ketone 1l, 2-octanone] | 208% | – | Conversion (%) OATA (OATA WT [2]): 30% |
| CC(=O)C(C)C [Ketone 1m, 3-methyl 2-butanone] | 161% | – | – |
| CC(=O)CC(C)C [Ketone 1n, 4-methyl-2-pentanone] | 21% | – | – |
| CCC(C)=O [Ketone 2-butanone, 2-butanone] | 317% | – | – |
| Cc1cccc(C)c1OCC(C)N (stereo not shown) [Mexiletine, reference compound] | – | 27% | – |
| CC(=O)CO [hydroxyacetone] | 364% | – | – |
| COCC(C)=O [methoxyacetone] | 571% | – | – |
| CC(=O)C(=O)O [pyruvate, pyruvic acid] | – | – | Relative activity, OATA WT (OATA WT [4]): 100% |
| (Brucella anthropi ATCC 49188) | – | – | Km (CC(=O)C(=O)O): 0.12, 2.1 mM; kcat (CC(=O)C(=O)O): 2600, 19000; kcat/Km (CC(=O)C(=O)O): 22000, 9000 |
| (S)-sec-butylamine | – | 29% | – |
| cyclpropyl methyl ketone [Ketone 1o] | 17% | – | – |
